Test results published in PMC3983201, “6-Methoxyflavanones as Bitter Taste Receptor Blockers for hTAS2R39” (PLoS ONE, 2014).
Read-outs that look alike come from different tables or passages of the source.

What was measured:
[1] = target: T1, hTAS2R39 (Homo sapiens, UniProt P59534); assay: Calcium assay of hTAS2R39 activation/inhibition in HEK293 T-Rex Flp-In cells; type: cell-based
T1 construct: first 45 amino acids of rat somatostatin receptor type 3 (sst3 membrane-targeting tag) (N); expressed in transfected cells; host or cells: HEK293 T-Rex Flp-In cells stably expressing Gα16-gust44; receptor in pcDNA5/FRT, induced with doxycycline
T1 sequence (P59534 1-338): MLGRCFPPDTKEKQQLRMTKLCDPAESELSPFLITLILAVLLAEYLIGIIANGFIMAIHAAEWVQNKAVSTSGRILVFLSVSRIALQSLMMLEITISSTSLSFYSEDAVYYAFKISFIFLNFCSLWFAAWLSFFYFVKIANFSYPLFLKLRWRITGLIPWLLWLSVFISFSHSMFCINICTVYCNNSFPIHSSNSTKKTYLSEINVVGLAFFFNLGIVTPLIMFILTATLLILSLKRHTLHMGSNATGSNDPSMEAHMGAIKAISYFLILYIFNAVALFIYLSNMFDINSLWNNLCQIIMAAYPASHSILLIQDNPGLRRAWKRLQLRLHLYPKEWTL

[2] = target: T2, hTAS2R16 (Homo sapiens, UniProt Q9NYV7); assay: Calcium assay of hTAS2R16 activation/inhibition (salicin as agonist); type: cell-based; details: for inhibition of salicin response on hTAS2R16: 10 mM salicin, simultaneous and stepwise addition
T2 construct: expressed in transfected cells; host or cells: induced versus non-induced cells
T2 sequence (Q9NYV7 1-291): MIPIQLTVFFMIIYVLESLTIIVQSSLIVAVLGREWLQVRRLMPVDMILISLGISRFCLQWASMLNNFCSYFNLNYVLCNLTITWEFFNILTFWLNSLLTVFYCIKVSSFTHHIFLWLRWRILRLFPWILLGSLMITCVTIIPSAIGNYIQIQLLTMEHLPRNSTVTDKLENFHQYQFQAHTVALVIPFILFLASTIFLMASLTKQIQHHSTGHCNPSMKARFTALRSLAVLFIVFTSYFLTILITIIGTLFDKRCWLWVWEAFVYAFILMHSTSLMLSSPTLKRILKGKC
Description: Cells were seeded into poly-L-lysine-coated (Sigma-Aldrich) 96-well plates (black wall, clear bottom, Greiner bio-one, Frickenhausen, Germany) at a density of 7*10^3 cells in 100 μL/well and cultured for 24 h. Transcription of the receptors was induced by adding 0.25 μg/mL doxycycline (Sigma-Aldrich). Cells were induced for 24 h and then loaded with the calcium-sensitive fluorescent dye Fluo-4-AM (2.5 μM, Invitrogen), which was dissolved in Tyrode's buffer containing 5% (v/v) tetracycline-free FBS (Lonza). One hour after loading, cells were washed with Tyrode's buffer and taken up in Tyrode's buffer. Stock solutions of test compounds were prepared in DMSO and diluted to the appropriate concentration in Tyrode's buffer, not exceeding a DMSO concentration of 1% (v/v).
Receptor activation or inhibition was measured via intracellular Ca^2+ release in a FlexStation II 384 or FlexStation III (Molecular Devices Corporation, Sunnyvale, CA, USA) by measuring fluorescence (excitation 485 nm/emission 520 nm) for either 90 s or 240 s at 37°C. Two methods of compound administration were applied: simultaneous and stepwise addition of potential antagonist and agonist. The first 17 s before compound addition were used for baseline determination. For the simultaneous method, agonist and potential antagonist were pre-mixed, administered after 17 s, and fluorescence was measured for in total 90 s. For the stepwise method, after 17 s, the potential antagonist was added, fluorescence was measured until 120 s, and after 120 s the agonist was added and measured for another 120 s, in total 240 s. […] Each experiment was performed at least in duplicate in separate experiments (as indicated for each figure).
Screening for hTAS2R39 inhibition by flavanones was performed with simultaneous application of agonist (200 μM ECG) and putative antagonist (250 μM flavanone). Inhibition was indicated when [drawing 1] . In case of indicated inhibition, flavanones were applied at different concentrations, in order to test for dose-dependent inhibition, at the EC80 concentration of the agonist. Another agonist of hTAS2R39, denatonium benzoate, was used in inhibition experiments at 1.7 mM (EC80). hTAS2R14 inhibition was tested with 640 μM ECG or 70 μM genistein as agonists, representing their respective EC80 concentrations. To investigate the specificity of flavanones for inhibition of hTAS2R39 and hTAS2R14, another bitter taste receptor, hTAS2R16 (not known to be activated by flavonoids), was used in inhibition experiments ( File S3 ) towards its agonist salicin.
SUPPORTING INFORMATION to the article “6-Methoxyflavanones as Bitter Taste Receptor Blockers for hTAS2R39” by Roland, WSU; Gouka, RJ; Gruppen, H; Driesse, M; van Buren, L; Smit, G; Vincken, J-P File S3 Investigation of identified inhibitors on hTAS2R16.
To investigate whether the hTAS2R39 inhibitors 6,3’-dimethoxyflavanone (3), 4’- fluoro-6-methoxyflavanone (6), and 6-methoxyflavanone (11) were able to inhibit a bitter receptor not known for flavonoid activation, hTAS2R16 was selected for inhibition experiments. Measuring dose-response curves of the hTAS2R16 agonist […]
Figure S3. Inhibition of response of 10 mM salicin (---) on hTAS2R16 (induced (●), non-induced (○)) by 4’-fluoro-6-methoxyflavanone (6) after simultaneous addition (A) and stepwise addition (B), by 6,3’-dimethoxyflavanone (3) after simultaneous addition (C) and stepwise addition (D), and by 6-methoxyflavanone (11) after simultaneous addition (E) and stepwise addition (F). […]

| Structure (SMILES) | reversibility of inhibition (washout experiment) ([1]; 200 μM ECG, 100 μM antagonist, washed with Tyrode's buffer, stimulated again) | maximal signal reduction ([1]; 200 μM ECG, simultaneous addition, reached at 63 μM) | receptor blocking ([1]; 200 μM ECG, stepwise addition (applied prior to ECG)) | maximal signal reduction ([1]; 1.7 mM denatonium benzoate, simultaneous addition, up to 63 μM) | receptor blocking ([1]; 1.7 mM denatonium benzoate, stepwise addition) | mechanism of antagonism on hTAS2R39 ([1]; ECG dose-response curves at various antagonist concentrations and wash-out experiments) | Threshold, Simultaneous ([1]; inhibition of hTAS2R39 response to 200 μM ECG, simultaneous addition, n.b. = no blocking) | IC50 ([1]; inhibition of hTAS2R39 response to 200 μM ECG, simultaneous addition, n.b. = no blocking, read-out: IC50, Simultaneous) | Threshold, Stepwise ([1]; inhibition of hTAS2R39 response to 200 μM ECG, stepwise addition) | IC50 ([1]; inhibition of hTAS2R39 response to 200 μM ECG, stepwise addition, read-out: IC50, Stepwise) | Threshold, Simultaneous ([1]; inhibition of hTAS2R39 response to 1.7 mM denatonium benzoate, simultaneous addition, n.b. = no blocking) | IC50 ([1]; inhibition of hTAS2R39 response to 1.7 mM denatonium benzoate, simultaneous addition, n.b. = no blocking, read-out: IC50, Simultaneous) | Threshold, Stepwise ([1]; inhibition of hTAS2R39 response to 1.7 mM denatonium benzoate, stepwise addition) | IC50 ([1]; inhibition of hTAS2R39 response to 1.7 mM denatonium benzoate, stepwise addition, read-out: IC50, Stepwise) | significance of the inhibitory effect at screening concentrations ([1]; simultaneous application of 200 μM ECG and 250 μM flavanone) | reduction of ECG response on hTAS2R39 (screening for inhibition) ([1]; simultaneous application of 200 μM ECG and 250 μM flavanone, inhibition when response ratio <1) | inhibition of salicin response on hTAS2R16 [2] | inhibition of hTAS2R39 by probenecid in the buffer ([1]; 0.5 mM probenecid in Tyrode's buffer, agonist ECG) | inhibitory effect of probenecid on hTAS2R16 assay ([2]; 0.5 mM probenecid in Tyrode's buffer and dye loading buffer, agonist salicin) |
| --- | --- | --- | --- | --- | --- | --- | --- | --- | --- | --- | --- | --- | --- | --- | --- | --- | --- | --- | --- |
| COc1ccc2c(c1)C(=O)CC(c1ccc(F)cc1)O2 (centres unmarked) [Compound 6, 4′-Fluoro-6-methoxyflavanone] | reversible | 65% | 100% | 58% | 100% | reversible insurmountable antagonism | 8 µM | 32 ± 7 µM | 63 µM | 102 ± 9 µM | 8 µM | 22 ± 12 µM | 32 µM | 55 ± 3 µM | significant | showed reduction of ECG responses | no inhibition | – | – |
| CCCN(CCC)S(=O)(=O)c1ccc(C(=O)O)cc1 [probenecid, p-(dipropylsulfamyl)benzoic acid, reference compound] | – | – | – | – | – | – | – | – | – | – | – | – | – | – | – | – | – | did not lead to inhibition | no inhibitory effect |
| COc1ccc2c(c1)C(=O)CC(c1ccccc1)O2 (centres unmarked) [Compound 11, 6-Methoxyflavanone] | – | – | – | – | – | – | – | – | – | – | – | – | – | – | – | – | no inhibition | – | – |
